The values below come from patent publication US20090041897A1, “Transparent, concentrated liquid nutritional supplement composition” (priority 2007, published 2009).

The conditions of data set [1]: general statement in the description; cited from earlier work.
The nature of data set [2]: solubility, turbidity and stability of ingredients in water. The data set is classed as physicochemical. To be noted: minerals considered for the concentrate.
Method: Each ingredient or nutrient is evaluated at suitable concentration (based on actual usage level) in 100 ml deionized water enclosed in glass bottle and checked for turbidity. Only non turbidity producing materials (estimated at 25 NTU or less) were selected. Visual evaluation also conducted to ensure clear liquids are obtained. Solutions with an estimated 30 NTG and above are eliminated as potential ingredients. Bottles were also checked for precipitated solids at 0, 2, 4, 6, 8, 10 and 24 hours at room temperature. If precipitate is observed, the ingredient/nutrient is rendered unusable for producing appealing liquid nutritional supplement. Furthermore, ingredients are evaluated in a final diluted liquid nutritional supplement and/or diluents to ensure that dilution will not change the physical appearance of concentrates. […] Insoluble materials are excluded from the formulation. Saturation point is also observed for each ingredient/nutrient to ensure that no precipitation will occur. […] Each ingredient or nutrient is evaluated at suitable concentration (based on actual usage level) in 100 ml deionized water enclosed in glass bottle and checked turbidity. […] Furthermore, ingredients are evaluated in a final diluted liquid nutritional supplement to ensure that dilution will not change the physical appearance of concentrates. […]

For `N[C@H]1C(O)O[C@H](CO)[C@@H](O)[C@@H]1O` (some centres unmarked) [Glucosamine], the solubility in water entry in data set [1] is listed as “water-soluble”. In the case of `CS(C)(=O)=O` [MSM, Methyl-Sulfonyl-Methane], in data set [1], the solubility in water result is given as “readily water soluble”. Turning to `O=C1O[C@H]([C@@H](O)CO)C(O)=C1O` [Vitamin C, Ascorbic Acid], the stability in water entry in data set [1] is given as “degrades in water in fast fashion”. On to `[Mg+2]` [magnesium], for which, in data set [2], the “effect on clarity of concentrate and finished liquid nutritional supplement” value is “induce cloudiness and turbidity”; the solubility entry is given as “not soluble”. As for Chondroitin sulfate, the solubility in water entry in data set [1] is “soluble in water”. Take Gelatin: in data set [1], the solubility in water result was “soluble only in hot water”.

As for Hydrolyzed Collagen, in data set [1], the solubility in water result was “readily water soluble”.
